Measurements reported in US20210309652A1, “ISOXAZOLINE COMPOUNDS FOR CONTROLLING INVERTEBRATE PESTS” (priority 2018, published 2021).

How the values were obtained:
Format in all cases: in vivo
[1] = system: cotton melon aphid (Aphis gossypii (Glover)); assay: Test E: control of cotton melon aphid on okra plant, contact and/or systemic; settings: 144 h
Method: (§1) Test Compounds were formulated using a solution containing 10% acetone, 90% water and 300 ppm Activator 90® non-ionic surfactant (Loveland Products, Loveland, Colo., USA). The formulated Compounds were applied in 1 mL of liquid through an atomizer nozzle positioned 1.27 cm (0.5 inches) above the top of each test unit. Test Compounds were sprayed at the rates indicated, and each test was replicated three times.
For evaluating control of cotton melon aphid (Aphis gossypii (Glover)) through contact and/or systemic means, the test unit consisted of a small open container with a 5-day-old okra plant inside. This was pre-infested with 30-40 insects on a piece of leaf according to the cut-leaf method, and the soil of the test unit was covered with a layer of sand.
Test Compounds were formulated and sprayed at 250, 50 and 10 ppm. After spraying, the test units were maintained in a growth chamber for 6 days at 19° C. and 70% relative humidity. Each test unit was then visually assessed for insect mortality.

[2] = system: green peach aphid (Myzus persicae (Sulzer)); assay: Test D: control of green peach aphid on radish plant, contact and/or systemic; settings: 144 h
Method: as §1
For evaluating control of green peach aphid (Myzus persicae (Sulzer)) through contact and/or systemic means, the test unit consisted of a small open container with a 12-15-day-old radish plant inside. This was pre-infested by placing on a leaf of the test plant 30-40 aphids on a piece of leaf excised from a culture plant (cut-leaf method). The aphids moved onto the test plant as the leaf piece desiccated. After pre-infestation, the soil of the test unit was covered with a layer of sand.
Test Compounds were formulated and sprayed at 250 and 50 ppm. After spraying of the formulated test Compound, each test unit was allowed to dry for 1 hour and then a black, screened cap was placed on top. The test units were held for 6 days in a growth chamber at 19-21° C. and 50-70% relative humidity. Each test unit was then visually assessed for insect mortality.

[3] = system: potato leafhopper (Empoasca fabae (Harris)); assay: Test C: control of potato leafhopper on Soleil bean plant, contact and/or systemic; settings: 144 h
Method: as §1
For evaluating control of potato leafhopper (Empoasca fabae (Harris)) through contact and/or systemic means, the test unit consisted of a small open container with a 5-6-day-old Soleil bean plant (primary leaves emerged) inside. White sand was added to the top of the soil, and one of the primary leaves was excised prior to application of the test Compound.
Test Compounds were formulated and sprayed at 250, 50 and 10 ppm. After spraying of the formulated test Compound, the test units were allowed to dry for 1 hour before they were post-infested with 5 potato leafhoppers (18-to-21-day-old adults). A black, screened cap was placed on the top of the test unit, and the test units were held for 6 days in a growth chamber at 20° C. and 70% relative humidity. Each test unit was then visually assessed for insect mortality.

[4] = system: corn earworm [Helicoverpa zea (Boddie)]; assay: Test H: control of corn earworm on treated cotton leaf pieces; settings: 96 h
Method: (§2) For evaluating control of beet army worm [Spodoptera exigua (Hübner)], corn earworm [Helicoverpa zea (Boddie)], and cabbage looper [Trichoplusia ni (Hübner)], the test unit consisted of 4-inch diameter pots with 3-4 week old soybean (for S. exigua) or cotton (for H. zea and T. ni) plants inside. Plants were treated with test Compound sprayed to runoff using a hand-held spray nozzle. Test Compounds were formulated and sprayed at 5 rates. Treated plants dried for 1 hour. Leaves of treated plants were cut into pieces (approximately 4×3 cm), and pieces were placed in cells of plastic trays that each contained agar to maintain humidity. Each cell was infested with a single second-instar larva which represented a separate replicate. Each rate was represented by 16-24 larvae. Cells were sealed with lids. Trays were held for 4 days in a growth chamber with a 16:8-hour (Light:Dark) cycle at 25° C. and 70% relative humidity.
(§3) Treatments were evaluated by counting the number of live and dead larvae and by visually estimating the percentage of feeding on plant material using a 0-10 rating scale, corresponding to 10% increases from 0-100% feeding.

[5] = system: beet army worm [Spodoptera exigua (Hübner)]; assay: Test H: control of beet armyworm on treated soybean leaf pieces; settings: 96 h
Method: as §2, §3

[6] = system: cabbage looper [Trichoplusia ni (Hübner)]; assay: Test H: control of cabbage looper on treated cotton leaf pieces; settings: 96 h
Method: as §2, §3

[7] = system: Western Flower Thrips (Frankliniella occidentalis (Pergande)); assay: Test G: control of Western Flower Thrips on Soleil bean plant, contact and/or systemic; settings: sprayed at 10 ppm; 6 days
Method: as §1
For evaluating control of the Western Flower Thrips (Frankliniella occidentalis (Pergande)) through contact and/or systemic means, the test unit consisted of a small open container with a 5-7-day-old Soleil bean plant inside.
Test Compounds were formulated and sprayed at 250, 50, 10 and 2 ppm. After spraying, the test units were allowed to dry for 1 hour, and then ˜60 thrips (adults and nymphs) were added to each unit. A black, screened cap was placed on top, and the test units were held for 6 days at 25° C. and 45-55% relative humidity. Each test unit was then visually assessed for plant damage and insect mortality.

SMILES | mortality at 10 ppm [3] | mortality at 1 ppm [4] | mortality at 10 ppm [1] | mortality at 1 ppm [5] | mortality at 10 ppm [5] | mortality at 10 ppm [4] | mortality at 10 ppm [2] | also measured
O=C(NCc1ncccn1)c1ccc(C2=NOC(c3cc(Cl)c(F)c(Cl)c3)(C(F)(F)F)C2)c2ccsc12 (centres unmarked) [Compound 20, 4-[5-(3,5-dichloro-4-fluorophenyl)-4,5-dihydro-5-(trifluoromethyl)-3-isoxazolyl]-N-(2-pyrimidinylmethyl)benzo[b]thiophene-7-carboxamide] | ≥ 80% | – | – | – | – | – | – | mortality at 50 ppm [1]: ≥ 80%; mortality at 50 ppm [2]: ≥ 80%; mortality at 50 ppm [3]: ≥ 80%
CC(=O)NCc1ccc(C2=NOC(c3cc(Cl)cc(Cl)c3)(C(F)(F)F)C2)c2ccoc12 (centres unmarked) [Compound 79, N-[[4-[5-(3,5-dichlorophenyl)-5-(trifluoromethyl)-4H-1,2-oxazol-3-yl]-1-benzofuran-7-yl]methyl]acetamide] | ≥ 80% | ≥ 80% | ≥ 80% | – | – | – | – | –
O=C(NC1C[S+]([O-])C1)c1ccc(C2=NOC(c3cc(Cl)c(F)c(Cl)c3)(C(F)(F)F)C2)c2ccoc12 (single isomer, unassigned) [Compound 57, 4-(5-(3,5-dichloro-4-fluorophenyl)-5-(trifluoromethyl)-4,5-dihydroisoxazol-3-yl)-N-(1-oxidothietan-3-yl)benzofuran-7-carboxamide] | ≥ 80% | ≥ 80% | ≥ 80% | ≥ 80% | ≥ 80% | ≥ 80% | ≥ 80% | –
O=C(NC1CSC1)c1ccc(C2=NOC(c3cc(Cl)c(F)c(Cl)c3)(C(F)(F)F)C2)c2ccoc12 (centres unmarked) [Compound 55, 4-(5-(3,5-dichloro-4-fluorophenyl)-5-(trifluoromethyl)-4,5-dihydroisoxazol-3-yl)-N-(thietan-3-yl)benzofuran-7-carboxamide] | ≥ 80% | – | ≥ 80% | – | – | – | ≥ 80% | –
CC(=O)NCc1ccc(C2=NOC(c3cc(Cl)c(F)c(Cl)c3)(C(F)(F)F)C2)c2ccoc12 (centres unmarked) [Compound 83, N-[[4-[5-(3,5-dichloro-4-fluorophenyl)-4,5-dihydro-5-(trifluoromethyl)-3-isoxazolyl]-7-benzofuranyl]methyl]acetamide] | ≥ 80% | ≥ 80% | ≥ 80% | ≥ 80% | – | – | ≥ 80% | –
C[C@H](NC(=O)c1ccc(C2=NOC(c3cc(Cl)cc(Cl)c3)(C(F)(F)F)C2)c2sccc12)C(N)=O (stereo partly drawn) [Compound 101, N-[(1S)-2-amino-1-methyl-2-oxo-ethyl]-7-[5-(3,5-dichlorophenyl)-5-(trifluoromethyl)-4H-isoxazol-3-yl]benzothiophene-4-carboxamide] | ≥ 80% | ≥ 80% | – | ≥ 80% | ≥ 80% | ≥ 80% | – | mortality at 1 ppm [6]: ≥ 80%; mortality at 10 ppm [6]: ≥ 80%
O=C(NC1CS(=O)(=O)C1)c1ccc(C2=NOC(c3cc(Cl)c(F)c(Cl)c3)(C(F)(F)F)C2)c2ccoc12 (centres unmarked) [Compound 56, 4-[5-(3,5-dichloro-4-fluorophenyl)-4,5-dihydro-5-(trifluoromethyl)-3-isoxazolyl]-N-(1,1-dioxido-3-thietanyl)-7-benzofurancarboxamide] | ≥ 80% | ≥ 80% | – | ≥ 80% | ≥ 80% | ≥ 80% | – | –
CSCCNC(=O)c1ccc(C2=NOC(c3cc(Cl)c(F)c(Cl)c3)(C(F)(F)F)C2)c2ccoc12 (centres unmarked) [Compound 1] | – | – | – | – | – | – | – | control efficacy: plant damage (30% or less plant damage and/or 100% mortality) [7]: ≤ 30%
